Laboratory results: PubChem BioAssay AID488879 (Sanford-Burnham Center for Chemical Genomics, 2010)
Activity calls are given as the source filed them. How the calls were made is not given here.

Molecular target: alkaline phosphatase, placental type (Homo sapiens)
Assay: inhibition of placental alkaline phosphatase – biochemical, uHTS hits, selectivity assay for mouse IAP inhibitor project, dose response (AID 488879)
Conditions: purified human placental alkaline phosphatase, enzymatic inhibition

SMILES	IC50
COc1ccc(C(=O)OCC(=O)Nc2ncc([N+](=O)[O-])s2)cc1OC	> 100 µM (inactive)
O=S(=O)(c1ccc(NC(=S)N/N=C/c2ccc(O)c(O)c2)cc1)N1CCOCC1	2.35 µM
N#C/C(=C\c1ccc(O)c(O)c1)C(=O)Nc1cccc2ncccc12	7.32 µM
C#CCOCCOCCOCCNc1nc(N2CCN(C(=O)CCCCCCCCCCNC(=O)[C@@H](CCSC)n3cc(CCO)nn3)CC2)nc(N2CCN(C(=O)CCCCCCCCCCNC(=O)[C@H]([C@@H](C)CC)n3cc(CCCCN=C(N)N)nn3)CC2)n1	> 100 µM (inactive)
N#CC(C#N)=Cc1ccc(O)c(O)c1	> 100 µM (inactive)
COC(=O)C/C=N/N=C1/NC(=O)/C(=C/C(=O)O)S1	8.44 µM
NS(=O)(=O)c1cccc(NC(=O)CSc2nnc(-c3ccncc3)n2C2CC2)c1	> 100 µM (inactive)
C=CCn1cc(CN2CCC(C(=O)Nc3cccc(-c4cccc(Cl)c4)c3)CC2)c(C)n1	34.3 µM
O=C(CSc1ncn[nH]1)CSc1ncn[nH]1	23 µM
CCn1cc(CN2CCC(C(=O)Nc3cccc(-c4cccc(Cl)c4)c3)CC2)c(C)n1	> 100 µM (inactive)
Cc1ccc(Cl)c2c1=NC(=O)C=2c1[nH]c(=S)[nH]c1O	> 100 µM (inactive)
Cc1cc(Cl)ccc1NC(=S)NCCC(c1ccccc1)c1ccccc1	> 100 µM (inactive)
CCN(C(=O)C(C)N1C(=O)/C(=C/c2ccco2)SC1=S)C1CCS(=O)(=O)C1 (stereo not given)	7.78 µM
O=C(COc1ccccc1C(=O)N/N=C\c1ccc(O)c(O)c1)N/N=C/c1ccc(O)c(O)c1	> 100 µM (inactive)
O=C1/C(=C/c2ccc(O)c(O)c2)Oc2cc(O)ccc21	67.2 µM
O=C(N/N=C/c1cccnc1)c1cc(O)c(O)c(O)c1	> 100 µM (inactive)
O=c1ccc2c(-c3ccccc3S(=O)(=O)O)c3ccc(O)c(O)c3oc-2c1O	> 100 µM (inactive)
O=C(NN1C(=O)/C(=C/c2ccc(O)cc2)SC1=S)c1ccccc1O	> 100 µM (inactive)
COc1ccc(N2C(=O)/C(=C/c3ccco3)C(=O)NC2=S)cc1	64.9 µM
Clc1ccc(C(c2ccc(Cl)cc2)n2cc[n+](CC(OCc3ccc(Cl)cc3Cl)c3ccc(Cl)cc3Cl)c2)cc1 (stereo not given)	> 100 µM (inactive)
CN=c1scc(-c2ccco2)n1/N=C/c1ccc(O)c(O)c1	> 100 µM (inactive)
O=C(NCCCCc1ccccc1)NC[C@@H]1CC[C@@H](Cc2ccc(-c3ccccc3)cc2)O1	6.58 µM
N#Cc1c(SCC(=O)Nc2nccs2)sc2c(O)cc(=O)[nH]c12	> 100 µM (inactive)
NC1=NC(=O)/C(=C\c2ccco2)S1	32 µM

SMILES	IC50
FC(F)Oc1ccc(NC(=S)NC2CCSc3ccccc32)cc1 (stereo not given)	> 100 µM (inactive)
OCCCN1c2ccccc2Nc2nnc(-c3ccccc3)cc21	> 100 µM (inactive)
Cn1nc([N+](=O)[O-])nc1S(C)(=O)=O	> 100 µM (inactive)
O=C(/C=C/c1ccco1)NC(=S)Nc1ccc(C(=O)O)cc1	> 100 µM (inactive)
CN(CC(=O)NC(c1ccccc1)c1ccccc1)Cc1nc2ccccc2c(=O)[nH]1	> 100 µM (inactive)
CN1C(=O)/C(=C/C=C/c2ccco2)C(=O)NC1=S	24.4 µM
Cc1ccc(CN2C3CCCC2CC(NC(=O)Nc2cccc(F)c2)C3)cc1 (stereo not given)	> 100 µM (inactive)
COc1cccc(NC(=S)NCCC(c2ccccc2)c2ccccc2)c1	> 100 µM (inactive)
S=C(NCCC(c1ccccc1)c1ccccc1)Nc1ccc(Cl)cc1	> 100 µM (inactive)
COc1cc(/C=C/[N+](=O)[O-])ccc1OC(=O)c1cc2ccccc2oc1=O	> 100 µM (inactive)
Oc1cc(O)c2c(c1)OC(c1ccc(O)c(O)c1)C(O)C2 (stereo not given)	> 100 µM (inactive)
O=C(O)CNS(=O)(=O)c1ccc2c3c(cccc13)C(=O)N2	> 100 µM (inactive)
O=C(CSc1nc2nn(-c3ccccc3)c(=O)c-2c2n1CCCCC2)c1ccc(O)c(O)c1	> 100 µM (inactive)
CCOc1ccccc1N1CCN(S(=O)(=O)c2ccc3c4c(cccc24)C(=O)N3)CC1	> 100 µM (inactive)
COc1cc(NC(=S)NCCC(c2ccccc2)c2ccccc2)cc(OC)c1	> 100 µM (inactive)
N#Cc1c(SCC(=O)Nc2nc3ccccc3s2)sc2c(O)cc(=O)[nH]c12	> 100 µM (inactive)
COc1cc(OC)c2c(c1O)OC(c1ccccc1)CC2=O (stereo not given)	> 100 µM (inactive)
COc1cc(/C=N/NC(=O)c2cc(O)cc(O)c2)ccc1OC(=O)c1ccccc1	70.1 µM
Cc1cc(O)c(Sc2ncn[nH]2)cc1NS(=O)(=O)c1ccc(Cl)cc1	> 100 µM (inactive)
CCn1c(SCC(=O)c2ccc(O)c(O)c2)nnc1-c1ccccc1OC	> 100 µM (inactive)
Cc1ccc(N/C(N)=N/c2nc(C)cc(N3CCCCC3)n2)c(C)c1	26.3 µM
Cc1ccc(/C=C2\SC(=S)N(/N=C/c3cc([N+](=O)[O-])ccc3O)C2=O)o1	> 100 µM (inactive)
O=C(CN1C(=O)/C(=C/c2ccco2)SC1=S)Nc1ccc(O)c(C(=O)O)c1	17.2 µM
O=C1/C(=C\c2cccc(O)c2O)SC(=S)N1Cc1ccccc1	> 100 µM (inactive)

SMILES	IC50
FC(F)Sc1ccc(NC(=S)NC(c2ccccc2)c2ccccc2)cc1	> 100 µM (inactive)
CCc1cc(Cn2nc(-c3ccccc3)cc2C(=O)NCc2cccc(Br)c2)on1	> 100 µM (inactive)
Cc1c(Cl)cccc1NC(=S)NCCC(c1ccccc1)c1ccccc1	> 100 µM (inactive)
Cc1cccnc1Nc1nc(-c2ccc(O)c(O)c2)cs1	> 100 µM (inactive)
Cc1cc(Cn2nc(-c3ccccc3)cc2C(=O)NCc2cccc(C(F)(F)F)c2)on1	> 100 µM (inactive)
Cc1ccc(C)c(NS(=O)(=O)c2ccc3[nH]c(=O)oc3c2)c1	> 100 µM (inactive)
CC(C(=O)O)N1C(=O)/C(=C/C=C/c2ccco2)SC1=S (stereo not given)	> 100 µM (inactive)
O=C(O)CC(C(=O)O)N1C(=O)/C(=C/C=C/c2ccco2)SC1=S (stereo not given)	> 100 µM (inactive)
CN(c1ccccc1C(=O)O)S(=O)(=O)c1ccc2c3c(cccc13)C(=O)N2	> 100 µM (inactive)
O=[N+]([O-])c1ccccc1NC(=S)N/N=C/c1ccc(O)c(O)c1	> 100 µM (inactive)
O=C(NN1C(=O)/C(=C/C=C/c2ccco2)SC1=S)c1ccccc1O	27.2 µM
COc1cc(/C=C/C(O)=C/C(=O)/C=C/c2ccc(O)cc2)ccc1O	> 100 µM (inactive)
CCOC(=O)c1ccc(N2CCN(c3ccccc3F)CC2)c(NC(=O)Nc2cccc(OC)c2)c1	> 100 µM (inactive)
S=C(NCc1ccc(Cl)cc1Cl)NC1CCCCC1	> 100 µM (inactive)
CC(C)(C)c1ccc(O)c(N=Cc2cc3c(cc2[N+](=O)[O-])OCO3)c1	> 100 µM (inactive)
Cc1cc(C)cc(NC(=S)NC2CC3CCCC(C2)N3Cc2cccs2)c1 (stereo not given)	42 µM
O=C(Nc1ccc(Cl)cc1)NC1CCCCC1Cc1ccco1 (stereo not given)	> 100 µM (inactive)
COc1ccc(C2CC(c3ccccc3Cl)=NN2c2ccc(S(N)(=O)=O)cc2)cc1 (stereo not given)	> 100 µM (inactive)
Cc1cc(F)ccc1S(=O)(=O)Nc1ccc(O)c(Sc2ncn[nH]2)c1	6.94 µM
O=C(c1c(O)cc(O)cc1O)C1c2c(cc(O)c3c2O[C@H](c2ccc(O)cc2)[C@@H](O)C3)OC1c1ccc(O)cc1 (stereo not given in full)	23.2 µM
C#CCOCCOCCOCCNc1nc(N2CCN(C(=O)CCCCCCCCCCNC(=O)[C@H](CO)n3cc(CCCSC)nn3)CC2)nc(N2CCN(C(=O)CCCCCCCCCCNC(=O)[C@H](CCCN=C(N)N)n3cc(C[C@@H](C)CC)nn3)CC2)n1	> 100 µM (inactive)
O=C(O)CCCN1C(=O)/C(=C/C=C/c2ccco2)SC1=S	> 100 µM (inactive)
O=c1[nH]c2ccc(S(=O)(=O)N3CCCCC3)cc2o1	> 100 µM (inactive)
O=C(NN1C(=O)CSC1=S)C(=O)NN1C(=O)CSC1=S	> 100 µM (inactive)

SMILES	IC50
O=C(CCN1C(=O)/C(=C/c2ccco2)SC1=S)Nc1ccc(O)cc1C(=O)O	> 100 µM (inactive)
NS(=O)(=O)c1ccc2c(c1)oc(=O)c1cc(S(N)(=O)=O)ccc12	> 100 µM (inactive)
NS(=O)(=O)c1cc(C(=O)N=Nc2c(O)[nH]c3ccccc23)ccc1Cl	> 100 µM (inactive)
O=C1CNC(=S)N1CCc1ccc(O)c(O)c1	> 100 µM (inactive)
O=C(NNC(=O)c1cc2cc(Br)ccc2oc1=O)c1ccc(O)cc1O	> 100 µM (inactive)
N#Cc1c(SCC(=O)Nc2nncs2)sc2c(O)cc(=O)[nH]c12	> 100 µM (inactive)
COc1cc(NS(=O)(=O)c2ccc(NC(=S)NC(=O)/C=C/c3ccco3)cc2)ncn1	55.1 µM
CCOC(=O)C1=C(C)N=c2s/c(=C/c3cccc([N+](=O)[O-])c3O)c(=O)n2C1c1ccc(OC)cc1OC (stereo not given)	> 100 µM (inactive)
CCN1/C(=C/C=C/c2sc3ccccc3[n+]2CC)Sc2ccccc21	> 100 µM (inactive)
O=C(NN1C(=O)/C(=C/c2ccc(O)c(O)c2)SC1=S)c1ccccc1	> 100 µM (inactive)
COCc1ccc(CN2CCC(C(=O)Nc3cccc(-c4cccc(Cl)c4)c3)CC2)o1	> 100 µM (inactive)
O=C1c2cccc(O)c2C(=O)c2c(O)cc(CO)cc21	> 100 µM (inactive)
O=C1CC(c2ccc(O)c(O)c2)Oc2c1ccc(O)c2O (stereo not given)	> 100 µM (inactive)
CCOC(=O)c1ccc(N2CCN(c3ccccc3F)CC2)c(NC(=O)Nc2ccccc2)c1	> 100 µM (inactive)
COc1cccc(NC(=O)CN(C)S(=O)(=O)c2ccc3[nH]c(=O)oc3c2)c1	> 100 µM (inactive)
Cc1ccc(NC(=S)NCc2ccccc2)cc1S(=O)(=O)N1CCCCC1	> 100 µM (inactive)
O=C1CSC(=S)N1/N=C/c1ccc(O)c(O)c1O	> 100 µM (inactive)
NS(=O)(=O)c1ccc(-c2ccc(/C=C3\NC(=S)NC3=O)o2)cc1	> 100 µM (inactive)
O=C(COC(=O)COc1ccccc1)Nc1ncc([N+](=O)[O-])s1	> 100 µM (inactive)
O=C(CCNS(=O)(=O)c1ccc2[nH]c(=O)oc2c1)Nc1ccccc1	42.5 µM
CCN1C(=O)/C(=C2\SC(=S)N(NC(=O)c3ccccc3O)C2=O)c2ccccc21	> 100 µM (inactive)
COc1cc(/C=N/N2C(=O)CSC2=S)ccc1O	> 100 µM (inactive)
Cc1nn(C(C)C)c(C)c1CN1CCC(C(=O)Nc2cccc(-c3cccc(F)c3)c2)CC1	56.6 µM
